Test results from patent US10208078B1 (SHAANXI UNIVERSITY OF SCIENCE AND TECHNOLOGY, priority 2018, dated 2019).

Assay: DPPH radical scavenging activity assay
Format: biochemical
Set-up: Scavenging activity (%): unit of the concentration uncertain
Settings: for Scavenging activity (%): 0.2 mmol/L DPPH, 30 minutes room temperature in dark, absorbance at 517 nm
Description: 2,2-Diphenyl-1-picryl hydrazyl (DPPH) is an organic compound composed of a stable organic radical. In the DPPH molecule, due to the presence of multiple electron-withdrawing —NO2 and large π bonds of the benzene ring, nitrogen free radical is stabilized. Its methanol solution is purple and has a maximum absorption peak at 517 nm. After the addition of an antioxidant, DPPH captures an electron to be paired with the free electron, and the purple fades and turns into a yellow substance. The absorption at 517 nm disappears, and the degree of fading is quantitatively related to the number of electrons it captures. Based on this principle, a spectrophotometer is used to detect the change of the absorbance of the DPPH radical and the sample solution, and the ability of the sample to provide hydrogen atoms and scavenge free radicals can be measured.
Preparation of DPPH solution: measuring exact amount of 2,2-diphenyl-1-picryl hydrazyl (DPPH) and dissolving in methanol to prepare a 0.2 mmol/L DPPH solution, stored at 0° C. in dark.
Measuring the scavenging activity of the sample solutions:
2 mL of the sample solutions at each concentration gradient was taken, 2 mL 0.2 mmol/L DPPH solution was added, the mixture was mixed and reacted at room temperature in dark for 30 minutes, and methanol was then added to adjust final volume. The absorbance Ai was measured at 517 nm. 2 mL control solution and 2 mL methanol were mixed, and the absorbance Aj was measured. 2 mL DPPH solution and 2 mL methanol were mixed, and the absorbance A0 was measured. The scavenging activity of the sample solution and control solutions is calculated according to the following calculation formula. Scavenging activity (%)=100×[1−(Ai−Aj)/A0]
In FIG. 1, the X axis represents the concentrations (PPM) of the sample and control solutions, and the Y axis represents the scavenging activity.

[1] = concentration 6.89 (unit uncertain)
[2] = concentration 68.9 (unit uncertain)
[3] = concentration 172 (unit uncertain)
[4] = concentration 689 (unit uncertain)
[5] = concentration 1724 (unit uncertain)
[6] = concentration 6890 (unit uncertain)
[7] = concentration 8620 (unit uncertain)

SMILES | free radical clearance rate (achieved at a lower concentration than aesculin, thiodipropionic acid and their mixture) | Scavenging activity (%) [1] | Scavenging activity (%) [2] | Scavenging activity (%) [3] | Scavenging activity (%) [4] | Scavenging activity (%) [5] | Scavenging activity (%) [6] | Scavenging activity (%) [7]
O=C(CCSCCC(=O)OCC1OC(Oc2cc3ccc(=O)oc3cc2O)C(O)C(O)C1O)OCC1OC(Oc2cc3ccc(=O)oc3cc2O)C(O)C(O)C1O (stereo not shown) [Aesculin thiodipropionic acid ester, aesculin thiodipropionic acid ester] | more than 90% | 7.60% | 37.08% | 58.91% | 77.78% | 90.95% | 94.83% | 96.12%
O=C(O)CCSCCC(=O)O [Thiodipropionic acid, 3,3′-thiodipropionic acid] | – | 1.13% | 3.84% | 4.64% | 5.20% | 5.43% | 6.33% | 6.57%
O=C1O[C@H]([C@@H](O)CO)C(O)=C1O [Vitamin C, vitamin C] | – | 53.40% | 96.15% | 96.28% | 96.79% | 96.79% | 97.18% | 97.43%
